This passage reports % of control, % of inhibition and IC50 results from ChEMBL document CHEMBL5465560, “Selectivity Literature for EUbOPEN Chemogenomic Library” (2024).

pIC50: −log10 of the molar value.

Test [1] concerns the target Rho-associated protein kinase 2 (Homo sapiens, UniProt O75116). Briefly: Selectivity interaction (KinomeScan (DiscoverX)) EUB0000595a ROCK2. As to conditions: at 10 µM.
The target in test [2] is T1, Ephrin type-A receptor 6 (Homo sapiens) (UniProt Q9UF33).
T1 sequence (whole entry): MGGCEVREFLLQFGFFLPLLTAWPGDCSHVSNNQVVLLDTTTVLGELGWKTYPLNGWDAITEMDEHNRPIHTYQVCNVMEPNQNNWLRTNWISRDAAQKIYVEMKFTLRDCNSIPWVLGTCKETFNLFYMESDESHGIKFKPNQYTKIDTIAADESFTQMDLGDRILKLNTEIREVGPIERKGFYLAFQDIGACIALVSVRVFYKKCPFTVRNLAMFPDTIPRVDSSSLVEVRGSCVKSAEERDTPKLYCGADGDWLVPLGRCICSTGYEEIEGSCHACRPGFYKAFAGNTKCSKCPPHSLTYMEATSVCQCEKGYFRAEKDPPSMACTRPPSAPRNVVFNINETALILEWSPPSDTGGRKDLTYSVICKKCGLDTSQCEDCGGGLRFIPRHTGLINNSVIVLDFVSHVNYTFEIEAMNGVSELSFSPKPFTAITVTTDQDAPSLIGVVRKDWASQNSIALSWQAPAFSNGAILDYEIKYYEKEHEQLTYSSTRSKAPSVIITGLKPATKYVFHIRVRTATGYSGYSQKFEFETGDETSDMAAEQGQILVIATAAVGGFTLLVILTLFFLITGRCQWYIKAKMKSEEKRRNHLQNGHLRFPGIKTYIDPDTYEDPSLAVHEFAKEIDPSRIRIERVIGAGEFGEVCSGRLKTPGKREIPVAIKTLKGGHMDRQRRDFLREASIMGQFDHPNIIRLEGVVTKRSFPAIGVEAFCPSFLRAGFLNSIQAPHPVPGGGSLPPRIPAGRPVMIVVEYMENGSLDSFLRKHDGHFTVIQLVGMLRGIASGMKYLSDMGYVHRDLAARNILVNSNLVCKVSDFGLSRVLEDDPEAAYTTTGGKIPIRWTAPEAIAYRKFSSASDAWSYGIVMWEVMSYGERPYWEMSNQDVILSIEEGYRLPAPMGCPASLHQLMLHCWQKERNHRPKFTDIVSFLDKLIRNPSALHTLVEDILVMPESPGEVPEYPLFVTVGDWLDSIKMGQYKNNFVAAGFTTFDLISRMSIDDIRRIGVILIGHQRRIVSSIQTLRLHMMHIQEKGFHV
The test is described as follows: Selectivity interaction (KinomeScan (DiscoverX)) EUB0001619a EPHA6. As to conditions: at 1 µM.

For test [3], the target named is T2, Uncharacterized serine/threonine-protein kinase SBK3 (Homo sapiens) (UniProt P0C264).
T2 sequence (whole entry): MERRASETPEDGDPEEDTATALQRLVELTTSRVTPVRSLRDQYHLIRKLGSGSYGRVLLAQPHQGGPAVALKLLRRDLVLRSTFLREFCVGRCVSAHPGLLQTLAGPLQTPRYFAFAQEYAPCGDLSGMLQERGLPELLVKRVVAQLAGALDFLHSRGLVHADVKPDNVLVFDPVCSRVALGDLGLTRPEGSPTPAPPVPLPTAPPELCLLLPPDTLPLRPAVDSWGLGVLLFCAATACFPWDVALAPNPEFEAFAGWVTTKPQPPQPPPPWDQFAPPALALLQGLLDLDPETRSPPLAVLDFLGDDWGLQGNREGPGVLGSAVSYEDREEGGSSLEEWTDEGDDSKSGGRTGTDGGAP
The test is described as follows: Selectivity interaction (KinomeScan (DiscoverX)) EUB0001619a SBK3. Particulars: at 1 µM.

Test [4] addresses Mitogen-activated protein kinase kinase kinase 20 (Homo sapiens) (UniProt Q9NYL2). The test is described as follows: Selectivity interaction (ActivX KiNativ screen (ex vivo kinase selectivity in human PBMCs)) EUB0001619a MAP3K20. The class given is cell-based. As to conditions: PBMC, at 1 µM.
Test [5] concerns the target Mitogen-activated protein kinase 6 (Homo sapiens) (UniProt Q16659). Briefly: Selectivity interaction (KinomeScan (DiscoverX)) EUB0001619a MAPK6. Particulars: at 1 µM.
The target in test [6] is AP2-associated protein kinase 1 (Homo sapiens, UniProt Q2M2I8). As to conditions: at 10 µM.
The target of test [7] is T3, cAMP-dependent protein kinase catalytic subunit PRKX (Homo sapiens) (UniProt P51817).
T3 sequence (whole entry): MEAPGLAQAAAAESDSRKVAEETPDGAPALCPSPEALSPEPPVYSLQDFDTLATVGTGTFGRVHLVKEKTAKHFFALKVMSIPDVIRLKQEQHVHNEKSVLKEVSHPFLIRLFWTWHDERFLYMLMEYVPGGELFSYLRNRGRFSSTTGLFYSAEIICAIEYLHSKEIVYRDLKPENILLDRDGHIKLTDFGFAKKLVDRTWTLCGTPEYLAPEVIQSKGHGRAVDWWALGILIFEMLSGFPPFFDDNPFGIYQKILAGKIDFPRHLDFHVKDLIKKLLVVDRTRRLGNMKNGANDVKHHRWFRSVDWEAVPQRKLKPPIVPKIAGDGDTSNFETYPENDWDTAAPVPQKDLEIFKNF
Particulars: at 10 µM.

Test [8] concerns the target Receptor tyrosine-protein kinase erbB-4 (Homo sapiens, UniProt Q15303). The test is described as follows: Selectivity interaction (KinomeScan (DiscoverX)) EUB0000666a ERBB4. Particulars: at 10 µM.
Test [9] concerns the target Phosphorylase b kinase gamma catalytic chain, skeletal muscle/heart isoform (Homo sapiens) (UniProt Q16816). Briefly: Selectivity interaction (KinomeScan (DiscoverX)) EUB0000666a PHKG1. As to conditions: at 10 µM.
Test [10] concerns the target Mitogen-activated protein kinase 10 (Homo sapiens, UniProt P53779). Briefly: Selectivity interaction (KinomeScan (DiscoverX)) EUB0000666a MAPK10. As to conditions: at 10 µM.
The target in test [11] is Cyclin-dependent kinase 9 (Homo sapiens, UniProt P50750). Briefly: Selectivity interaction (ActivX KiNativ screen (kinase selectivity in THP-1 cell lysates)) EUB0000639a CDK9. The class given is subcellular. Particulars: lysate.
Test [12] has as its system Tyrosine-protein kinase ABL1 (Homo sapiens), P00519 [Q252H]. The test is described as follows: Selectivity interaction (KinomeScan (DiscoverX)) EUB0000045b ABL1. Particulars: at 1 µM.
In test [13] the target is Melanocortin receptor 3 (Homo sapiens, UniProt P41968). The test is described as follows: Selectivity interaction (Melanocortin MC3 receptor binding assay, human recombinant ) EUB0000877a MC3R.
Test [14] has as its target Mitogen-activated protein kinase 11 (Homo sapiens) (UniProt Q15759). Briefly: Selectivity interaction (KinomeScan (DiscoverX)) EUB0000655a MAPK11. As to conditions: at 10 µM.
The target in test [15] is Serine/threonine-protein kinase PAK 6 (Homo sapiens) (UniProt Q9NQU5). Briefly: Selectivity interaction (KinomeScan (DiscoverX)) EUB0000655a PAK6. As to conditions: at 10 µM.
For test [16], the target named is Death-associated protein kinase 2 (Homo sapiens) (UniProt Q9UIK4). Briefly: Selectivity interaction (KinomeScan (DiscoverX)) EUB0000618a DAPK2. As to conditions: at 10 µM.
The target of test [17] is Misshapen-like kinase 1 (Homo sapiens, UniProt Q8N4C8). The test is described as follows: Selectivity interaction (KinomeScan (DiscoverX)) EUB0000092b MINK1. As to conditions: at 10 µM.

Chain of Cyclin-dependent kinase 9 (P50750 whole entry): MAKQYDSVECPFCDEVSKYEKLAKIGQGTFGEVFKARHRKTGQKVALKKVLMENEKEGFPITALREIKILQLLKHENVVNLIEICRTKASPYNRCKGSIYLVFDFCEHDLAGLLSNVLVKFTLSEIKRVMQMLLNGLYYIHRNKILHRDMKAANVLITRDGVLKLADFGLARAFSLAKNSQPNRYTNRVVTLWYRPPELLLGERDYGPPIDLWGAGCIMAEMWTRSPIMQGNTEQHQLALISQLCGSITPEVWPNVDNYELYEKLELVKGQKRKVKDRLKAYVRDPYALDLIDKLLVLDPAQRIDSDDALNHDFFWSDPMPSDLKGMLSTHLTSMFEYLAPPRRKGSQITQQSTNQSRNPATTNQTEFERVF
Chain of AP2-associated protein kinase 1 (Q2M2I8 whole entry, looked up): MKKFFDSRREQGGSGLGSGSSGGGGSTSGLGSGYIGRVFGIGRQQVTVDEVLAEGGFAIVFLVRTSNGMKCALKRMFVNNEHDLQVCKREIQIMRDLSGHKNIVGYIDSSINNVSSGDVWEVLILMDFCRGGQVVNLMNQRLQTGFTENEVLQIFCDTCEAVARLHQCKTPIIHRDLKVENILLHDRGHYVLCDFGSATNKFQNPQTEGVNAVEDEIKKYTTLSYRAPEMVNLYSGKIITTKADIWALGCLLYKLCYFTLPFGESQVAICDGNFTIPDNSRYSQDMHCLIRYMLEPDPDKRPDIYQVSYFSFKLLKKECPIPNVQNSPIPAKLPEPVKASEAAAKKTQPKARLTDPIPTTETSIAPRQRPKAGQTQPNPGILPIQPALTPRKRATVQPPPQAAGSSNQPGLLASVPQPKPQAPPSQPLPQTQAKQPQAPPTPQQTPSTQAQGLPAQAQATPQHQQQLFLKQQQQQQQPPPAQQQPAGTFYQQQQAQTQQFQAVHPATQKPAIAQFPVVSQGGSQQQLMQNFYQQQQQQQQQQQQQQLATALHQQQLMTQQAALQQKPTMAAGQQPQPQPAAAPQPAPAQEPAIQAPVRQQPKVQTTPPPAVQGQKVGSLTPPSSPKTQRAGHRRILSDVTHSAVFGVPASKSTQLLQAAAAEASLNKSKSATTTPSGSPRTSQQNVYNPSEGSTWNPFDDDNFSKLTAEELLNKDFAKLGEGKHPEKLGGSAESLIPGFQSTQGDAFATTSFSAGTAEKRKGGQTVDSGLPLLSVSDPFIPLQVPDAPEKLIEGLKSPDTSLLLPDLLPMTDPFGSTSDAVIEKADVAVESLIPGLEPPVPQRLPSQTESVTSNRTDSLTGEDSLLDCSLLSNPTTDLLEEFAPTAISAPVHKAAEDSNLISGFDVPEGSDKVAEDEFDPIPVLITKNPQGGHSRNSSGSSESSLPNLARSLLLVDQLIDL
Chain of Death-associated protein kinase 2 (Homo sapiens) (Q9UIK4 whole entry, looked up): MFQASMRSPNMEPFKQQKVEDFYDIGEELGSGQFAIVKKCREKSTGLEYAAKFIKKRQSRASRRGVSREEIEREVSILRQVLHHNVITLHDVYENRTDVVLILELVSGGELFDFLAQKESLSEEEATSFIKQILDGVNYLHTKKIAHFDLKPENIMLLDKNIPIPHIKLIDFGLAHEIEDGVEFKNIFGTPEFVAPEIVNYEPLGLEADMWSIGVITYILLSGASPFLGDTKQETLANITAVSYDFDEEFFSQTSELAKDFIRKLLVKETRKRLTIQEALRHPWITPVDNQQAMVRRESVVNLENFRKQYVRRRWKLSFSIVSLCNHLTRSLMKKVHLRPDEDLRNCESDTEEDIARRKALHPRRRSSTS
Chain of Receptor tyrosine-protein kinase erbB-4 (Q15303 whole entry, canonical isoform): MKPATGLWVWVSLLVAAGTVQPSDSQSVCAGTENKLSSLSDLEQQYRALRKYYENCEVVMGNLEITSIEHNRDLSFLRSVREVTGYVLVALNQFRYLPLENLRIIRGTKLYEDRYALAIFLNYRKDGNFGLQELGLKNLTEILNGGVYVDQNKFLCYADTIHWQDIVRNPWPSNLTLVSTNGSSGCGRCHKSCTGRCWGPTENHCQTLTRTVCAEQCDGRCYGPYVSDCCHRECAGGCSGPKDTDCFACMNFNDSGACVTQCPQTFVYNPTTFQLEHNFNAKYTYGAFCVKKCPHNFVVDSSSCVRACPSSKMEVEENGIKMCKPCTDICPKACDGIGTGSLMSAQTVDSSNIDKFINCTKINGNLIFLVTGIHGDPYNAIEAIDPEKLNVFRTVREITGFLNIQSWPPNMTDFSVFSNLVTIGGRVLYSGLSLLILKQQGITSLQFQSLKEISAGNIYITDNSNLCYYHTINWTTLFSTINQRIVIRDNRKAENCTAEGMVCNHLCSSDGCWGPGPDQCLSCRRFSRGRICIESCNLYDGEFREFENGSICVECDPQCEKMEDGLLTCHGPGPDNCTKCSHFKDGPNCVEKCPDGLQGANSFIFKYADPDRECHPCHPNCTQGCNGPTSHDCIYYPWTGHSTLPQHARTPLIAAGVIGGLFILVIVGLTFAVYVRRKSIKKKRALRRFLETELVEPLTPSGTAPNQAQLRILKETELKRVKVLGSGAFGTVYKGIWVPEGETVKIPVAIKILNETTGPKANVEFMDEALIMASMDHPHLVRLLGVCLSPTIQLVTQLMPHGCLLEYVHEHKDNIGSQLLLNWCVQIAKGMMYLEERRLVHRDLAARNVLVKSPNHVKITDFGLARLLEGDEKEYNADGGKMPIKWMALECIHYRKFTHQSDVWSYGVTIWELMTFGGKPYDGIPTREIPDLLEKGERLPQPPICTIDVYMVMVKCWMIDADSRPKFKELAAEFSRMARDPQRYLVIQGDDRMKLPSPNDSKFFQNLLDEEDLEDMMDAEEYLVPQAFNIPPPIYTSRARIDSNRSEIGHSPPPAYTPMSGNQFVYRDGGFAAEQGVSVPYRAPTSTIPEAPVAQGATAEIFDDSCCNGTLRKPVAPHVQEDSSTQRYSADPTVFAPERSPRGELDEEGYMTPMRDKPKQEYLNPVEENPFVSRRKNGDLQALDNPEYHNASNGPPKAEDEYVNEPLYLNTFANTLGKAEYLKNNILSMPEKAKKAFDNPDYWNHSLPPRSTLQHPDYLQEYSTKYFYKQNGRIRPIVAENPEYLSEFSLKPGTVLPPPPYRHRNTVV
Chain of Rho-associated protein kinase 2 (O75116 whole entry, looked up): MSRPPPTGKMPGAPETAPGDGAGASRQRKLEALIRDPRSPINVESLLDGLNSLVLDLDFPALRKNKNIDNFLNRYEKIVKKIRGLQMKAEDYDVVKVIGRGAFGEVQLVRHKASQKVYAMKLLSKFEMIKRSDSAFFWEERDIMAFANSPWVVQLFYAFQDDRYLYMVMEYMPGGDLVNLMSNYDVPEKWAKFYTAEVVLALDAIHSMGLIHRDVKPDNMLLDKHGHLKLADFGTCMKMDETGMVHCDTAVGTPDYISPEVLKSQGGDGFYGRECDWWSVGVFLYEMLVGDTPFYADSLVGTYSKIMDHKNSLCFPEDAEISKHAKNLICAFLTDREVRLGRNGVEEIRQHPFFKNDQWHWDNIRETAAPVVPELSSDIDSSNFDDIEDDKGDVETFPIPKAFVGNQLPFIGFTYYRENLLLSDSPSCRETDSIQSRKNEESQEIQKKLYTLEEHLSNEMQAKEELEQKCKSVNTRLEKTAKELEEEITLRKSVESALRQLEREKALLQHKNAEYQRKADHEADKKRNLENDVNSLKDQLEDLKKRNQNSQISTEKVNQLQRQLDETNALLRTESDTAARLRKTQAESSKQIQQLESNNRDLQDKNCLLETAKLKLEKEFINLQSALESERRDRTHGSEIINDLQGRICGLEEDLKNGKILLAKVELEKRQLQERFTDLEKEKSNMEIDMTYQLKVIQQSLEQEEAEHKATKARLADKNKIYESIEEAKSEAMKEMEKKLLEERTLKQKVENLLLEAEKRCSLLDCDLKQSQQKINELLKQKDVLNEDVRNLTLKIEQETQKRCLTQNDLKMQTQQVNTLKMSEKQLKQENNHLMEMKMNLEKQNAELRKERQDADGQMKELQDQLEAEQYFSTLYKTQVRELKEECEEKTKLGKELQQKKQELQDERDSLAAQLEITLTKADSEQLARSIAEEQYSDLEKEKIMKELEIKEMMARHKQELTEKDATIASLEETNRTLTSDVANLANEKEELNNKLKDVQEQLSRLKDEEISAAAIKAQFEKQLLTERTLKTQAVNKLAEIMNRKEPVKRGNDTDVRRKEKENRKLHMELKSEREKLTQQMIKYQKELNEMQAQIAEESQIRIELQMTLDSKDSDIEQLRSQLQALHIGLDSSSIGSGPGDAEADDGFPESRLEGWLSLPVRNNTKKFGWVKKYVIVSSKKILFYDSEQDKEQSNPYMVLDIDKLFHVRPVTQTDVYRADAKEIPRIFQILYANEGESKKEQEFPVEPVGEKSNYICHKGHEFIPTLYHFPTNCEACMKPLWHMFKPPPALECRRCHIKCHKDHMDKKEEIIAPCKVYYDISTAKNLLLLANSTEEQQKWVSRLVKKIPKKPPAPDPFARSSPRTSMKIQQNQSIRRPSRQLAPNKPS
Chain of Mitogen-activated protein kinase 11 (Homo sapiens) (Q15759 whole entry): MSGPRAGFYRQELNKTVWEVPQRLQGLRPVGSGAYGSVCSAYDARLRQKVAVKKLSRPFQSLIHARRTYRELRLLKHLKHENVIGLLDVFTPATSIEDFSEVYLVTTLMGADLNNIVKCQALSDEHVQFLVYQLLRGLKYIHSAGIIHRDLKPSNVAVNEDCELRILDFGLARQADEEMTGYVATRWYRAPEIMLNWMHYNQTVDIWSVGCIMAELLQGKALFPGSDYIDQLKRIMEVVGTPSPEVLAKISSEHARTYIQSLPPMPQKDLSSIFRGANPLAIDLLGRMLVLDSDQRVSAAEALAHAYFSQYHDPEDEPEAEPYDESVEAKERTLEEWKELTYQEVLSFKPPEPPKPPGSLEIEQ

`COCC(=O)NC/C=C/c1ccc2ncnc(Nc3ccc(Oc4ccc(C)nc4)c(C)c3)c2c1` [CP-724714] showed a % of control in test [1] of 100%.

`N#Cc1cccc(-c2c[nH]c3ncnc(N4CCOCC4)c23)c1`: the % of control in test [2], in [3] and in [5] was 100% each time. Further, the % of inhibition in [4] is -42%.

In the case of `CCN(CC)CCCCNc1ncc2cc(-c3cc(OC)cc(OC)c3)c(NC(=O)NC(C)(C)C)nc2n1`, the % of control in test [6] and in [7] was 100% each time.

`O=C(NOC[C@H](O)CO)c1ccc(F)c(F)c1Nc1ccc(I)cc1F`: the % of control worked out at 100% in test [8], 100% in test [9] and 90% in test [10].

Consider `CC[C@@H]1[C@H](F)C(=O)N[C@@H]1COc1nccc2cc(C(N)=O)c(OC)cc12` [ZIMLOVISERTIB], for which the % of inhibition was 16.2% in test [11] (at 0.01 µM); 0.9% in test [11] (at 0.04 µM); 2.5% in [11] (at 0.2 µM); -1% in [11] (at 1 µM); 33% in test [11] (at 5 µM).

In test [12], `C=CC(=O)Nc1cc(-n2c(=O)ccc3cnc4ccc(-c5ccc(NS(C)(=O)=O)cc5)cc4c32)ccc1C` returned a % of control of 95%.

Consider `CCC(=O)N1CC[C@H](Nc2ncnc3c2CN(c2cnc(OC)c(C(F)(F)F)c2)CC3)C1` [LENIOLISIB], for which the pIC50 – broadly, the negative decadic logarithm of the IC50, by convention in mol/L – in [13] is less than 4.52.

As for `CN(C)CCOc1ccc(-c2nc(-c3ccncc3)c(-c3ccc4c(c3)CC/C4=N\O)[nH]2)cc1`, the % of control was 91% in [14] and 100% in test [15].

As to `O[C@H]1CC[C@H](Nc2ncc3nc(Nc4c(F)cc(F)cc4F)n([C@H]4CCOC4)c3n2)CC1`, the % of control in test [16] was 100%.

`CCC(=O)N1CCN(c2ccc(-n3c(=O)ccc4cnc5ccc(-c6cnc7ccccc7c6)cc5c43)cc2C(F)(F)F)CC1` showed a % of control in [17] of 19%.
